# Test results as given in patent publication US12060349B2, “Glucosylceramide synthase inhibitors” (Genzyme Corporation, priority 2012, dated 2024).
# Like-named read-outs stand apart in the source and are kept apart here.
# How the values were obtained:
# [1] = target: T1, glucosylceramide synthase (Homo sapiens, UniProt Q16739); experiment: microsomal assay measuring conversion of ceramide to glucosylceramide by HPLC (GCS IC50); format: biochemical; details: concentration causing 50% inhibition of glucosylceramide synthase activity
# T1 construct: Microsomes were isolated from A375 human melanoma cells; endogenous in cells; host or cells: A375 human melanoma cells (microsomal fraction, 100,000 g pellet)
# T1 sequence (Q16739 1-394): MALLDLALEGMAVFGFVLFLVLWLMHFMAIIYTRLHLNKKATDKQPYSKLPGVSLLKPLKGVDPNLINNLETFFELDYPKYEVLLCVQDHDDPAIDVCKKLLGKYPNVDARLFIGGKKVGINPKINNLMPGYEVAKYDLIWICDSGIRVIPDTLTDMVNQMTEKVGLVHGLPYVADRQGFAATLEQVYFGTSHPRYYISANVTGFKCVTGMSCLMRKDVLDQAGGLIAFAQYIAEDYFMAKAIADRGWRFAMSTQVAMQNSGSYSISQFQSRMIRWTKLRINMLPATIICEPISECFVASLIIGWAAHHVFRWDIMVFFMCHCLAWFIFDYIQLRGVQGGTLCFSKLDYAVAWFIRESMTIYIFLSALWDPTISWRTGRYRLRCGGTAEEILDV
# How it was run: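 Microsomal preparation assayed for glucosylceramide synthase by direct HPLC measurement of ceramide conversion to glucosylceramide. GCS IC50 is the compound concentration giving 50% inhibition of enzyme activity.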
# [2] = test system: GM3 expression on the cell surface, B16 mouse melanoma cells; experiment: cell based phenotypic assay, cell surface GM3 by antibody mediated immunofluorescence, B16 (GM3 B16 IC50); details: Mus musculus, 50% inhibition of GM3 expression on the cell surface
# How it was run: (§1)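 B16 mouse and C32 human melanoma cells; cell-surface GM3 measured by antibody-mediated immunofluorescence, giving IC50.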
# [3] = test system: GM3 expression on the cell surface, C32 human melanoma cells; experiment: cell based phenotypic assay, cell surface GM3 by antibody mediated immunofluorescence, C32 (GM3 C32 IC50); details: Homo sapiens, 50% inhibition of GM3 expression on the cell surface
# How it was run: as §1
# [4] = test system: B16 mouse melanoma cells; experiment: cell viability in the B16 cell-based assay (Viability, B16 IC50); details: Mus musculus
# How it was run: (§2)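 Both lines undergo the phenotypic GM3 assay, and viability is recorded from that same cell-based run.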
# [5] = test system: C32 human melanoma cells; experiment: cell viability in the C32 cell-based assay (Viability, C32 IC50); details: Homo sapiens, concentration causing 50% cell death, values greater than 10 represent a lack of cell death
# How it was run: as §2
# [6] = read-out: GM3 B16 IC50, B16 mouse melanoma cells
# [7] = read-out: GM3 C32 IC50, C32 human melanoma cells
# [8] = B16, read-out: Viability, B16 IC50
# [9] = C32, read-out: Viability, C32 IC50, C32 cells
# [10] = B16 mouse melanoma cells, read-out: GM3 B16 IC50
# [11] = C32 human melanoma cells, read-out: GM3 C32 IC50
# [12] = B16, B16 cells, concentration causing 50% cell death, values greater than 10 represent a lack of cell death, read-out: Viability, B16 IC50
# [13] = C32, C32 cells, read-out: Viability, C32 IC50
"IC50 [2, 10]","IC50 [3, 11]",SMILES,IC50 [1],"IC50 [2, 6]","IC50 [3, 7]","IC50 [4, 8]","IC50 [5, 9]","IC50 [4, 12]","IC50 [5, 13]"
–,–,"CC(C)(C)CCS(=O)(=O)c1ccc(-c2ccc(C(C)(C)NC(=O)OC3CN4CCC3CC4)cc2)cc1 (stereo not drawn) [Example 245, Quinuclidin-3-yl (2-(4′-((3,3-dimethylbutyl)sulfonyl)-[1,1′-biphenyl]-4-yl)propan-2-yl)carbamate]",1.85 nM,66.3 nM,0.716 nM,6740 nM,316 nM,–,–
6.84 nM,0.315 nM,"CC(C)(C)CCS(=O)(=O)c1ccc(-c2ccc(C(C)(C)NC(=O)NC3(C)CCN4CCC3CC4)cc2)cc1 (stereo not drawn) [Example 248, 1-(2-(4′-((3,3-Dimethylbutyl)sulfonyl)-[1,1′-biphenyl]-4-yl)propan-2-yl)-3-(4-methyl-1-azabicyclo[3.2.2]nonan-4-yl)urea]",0.804 nM,–,–,–,–,7730 nM,1000 nM
–,–,"COCC1(CS(=O)(=O)c2ccc(-c3ccc(C(C)(C)NC(=O)OC4CN5CCC4CC5)cc3)cc2)CC1 (stereo not drawn) [Example 249, Quinuclidin-3-yl (2-(4′-(((1-(methoxymethyl)cyclopropyl)methyl)sulfonyl)-[1,1′-biphenyl]-4-yl)propan-2-yl)carbamate]",53.5 nM,247 nM,5.82 nM,≥ 10000 nM,2150 nM,–,–
–,–,"CNC(=O)c1ccc(-c2ccc(C(C)(C)NC(=O)OC3CN4CCC3CC4)cc2)cc1 (stereo not drawn) [Example 252, Quinuclidin-3-yl (2-(4′-(methylcarbamoyl)-[1,1′-biphenyl]-4-yl)propan-2-yl)carbamate]",1840 nM,1500 nM,220 nM,≥ 10000 nM,≥ 10000 nM,–,–
650 nM,63.8 nM,"CNC(=O)c1ccc(-c2ccc(C(C)(C)NC(=O)OC3CCN4CCC3CC4)cc2)cc1 (stereo not drawn) [Example 254, 1-Azabicyclo[3.2.2]nonan-4-yl (2-(4′-(methylcarbamoyl)-[1,1′-biphenyl]-4-yl)propan-2-yl)carbamate]",600 nM,–,–,–,–,≥ 10000 nM,≥ 10000 nM
3420 nM,20.1 nM,"CNC(=O)c1ccc(-c2ccc(C(C)(C)NC(=O)NC3(C)CCN4CCC3CC4)cc2)cc1 (stereo not drawn) [Example 255, N-Methyl-4′-(2-(3-(4-methyl-1-aza-bicyclo[3.2.2]nonan-4-yl)ureido)propan-2-yl)biphenyl-4-carboxamide]",46.9 nM,–,–,–,–,6790 nM,1000 nM
4440 nM,729 nM,"CNC(=O)c1ccc(-c2ccc(C(C)(C)NC(=O)N3CCN4CCC3CC4)cc2)cc1 [Example 256, N-(2-(4′-(Methylcarbamoyl)biphenyl-4-yl)propan-2-yl)-1,4-diazabicyclo[3.2.2]nonane-4-carboxamide]",12300 nM,–,–,–,–,≥ 10000 nM,≥ 10000 nM
–,–,"CN(C)C(=O)c1ccc(-c2ccc(C(C)(C)NC(=O)OC3CN4CCC3CC4)cc2)cc1 (stereo not drawn) [Example 257, Quinuclidin-3-yl 2-(4′-(dimethylcarbamoyl)biphenyl-4-yl)propan-2-ylcarbamate]",365 nM,786 nM,77.2 nM,≥ 10000 nM,≥ 10000 nM,–,–
179 nM,20.5 nM,"CN(C)C(=O)c1ccc(-c2ccc(C(C)(C)NC(=O)OC3CCN4CCC3CC4)cc2)cc1 (stereo not drawn) [Example 259, 1-Azabicyclo[3.2.2]nonan-4-yl 2-(4′-(dimethylcarbamoyl)biphenyl-4-yl)propan-2-ylcarbamate]",134 nM,–,–,–,–,≥ 10000 nM,≥ 10000 nM
1640 nM,302 nM,"CN(C)C(=O)c1ccc(-c2ccc(C(C)(C)NC(=O)N3CCN4CCC3CC4)cc2)cc1 [Example 260, N-(2-(4′-(Dimethylcarbamoyl)biphenyl-4-yl)propan-2-yl)-1,4-diazabicyclo[3.2.2]nonane-4-carboxamide]",8550 nM,–,–,–,–,≥ 10000 nM,≥ 10000 nM
354 nM,14.1 nM,"CN(C)C(=O)c1ccc(-c2ccc(C(C)(C)NC(=O)NC3(C)CCN4CCC3CC4)cc2)cc1 (stereo not drawn) [Example 261, N,N-Dimethyl-4′-(2-(3-(4-methyl-1-azabicyclo[3.2.2]nonan-4-yl)ureido)propan-2-yl)biphenyl-4-carboxamide]",60.8 nM,–,–,–,–,≥ 10000 nM,3160 nM
–,–,"CC(C)(NC(=O)OC1CN2CCC1CC2)c1ccc(-c2ccc(C(=O)N3CCCCC3)cc2)cc1 (stereo not drawn) [Example 262, Quinuclidin-3-yl 2-(4′-(piperidine-1-carbonyl)biphenyl-4-yl)propan-2-ylcarbamate]",19.6 nM,112 nM,3.5 nM,≥ 10000 nM,1000 nM,–,–
75 nM,3.01 nM,"CC(C)(NC(=O)OC1CCN2CCC1CC2)c1ccc(-c2ccc(C(=O)N3CCCCC3)cc2)cc1 (stereo not drawn) [Example 263, 1-Azabicyclo[3.2.2]nonan-4-yl 2-(4′-(piperidine-1-carbonyl)biphenyl-4-yl)propan-2-ylcarbamate]",14.5 nM,–,–,–,–,≥ 10000 nM,1000 nM
–,–,"CC(C)(NC(=O)OC1CN2CCC1CC2)c1ccc(-c2ccc(C(=O)N3CCOCC3)cc2)cc1 (stereo not drawn) [Example 265, Quinuclidin-3-yl 2-(4′-(morpholine-4-carbonyl)biphenyl-4-yl)propan-2-ylcarbamate]",480 nM,454 nM,39.9 nM,≥ 10000 nM,2150 nM,–,–

SMILES,"IC50 [2, 10]","IC50 [3, 11]",IC50 [1],"IC50 [2, 6]","IC50 [3, 7]","IC50 [4, 8]","IC50 [5, 9]","IC50 [4, 12]","IC50 [5, 13]"
"CC(C)(C)CCS(=O)(=O)c1ccc(-c2ccc(C(C)(C)NC(=O)NC3(C)CN4CCC3CC4)cc2)cc1 (stereo not drawn) [Example 246, 1-(2-(4′-((3,3-Dimethylbutyl)sulfonyl)-[1,1′-biphenyl]-4-yl)propan-2-yl)-3-(3-methylquinuclidin-3-yl)urea]",11.4 nM,0.624 nM,1.7 nM,–,–,–,–,≥ 10000 nM,1000 nM
"CCC1(NC(=O)NC(C)(C)c2ccc(-c3ccc(S(=O)(=O)CCC(C)(C)C)cc3)cc2)CN2CCC1CC2 (stereo not drawn) [Example 247, 1-(2-(4′-((3,3-Dimethylbutyl)sulfonyl)-[1,1′-biphenyl]-4-yl)propan-2-yl)-3-(3-ethylquinuclidin-3-yl)urea]",4.28 nM,0.396 nM,1.66 nM,–,–,–,–,6640 nM,1000 nM
"CCC1(NC(=O)NC(C)(C)c2ccc(-c3ccc(S(=O)(=O)CC4(COC)CC4)cc3)cc2)CN2CCC1CC2 (stereo not drawn) [Example 250, 1-(3-Ethylquinuclidin-3-yl)-3-(2-(4′-(((1-(methoxymethyl)cyclopropyl)methyl)sulfonyl)-[1,1′-biphenyl]-4-yl)propan-2-yl)urea]",84.5 nM,4.41 nM,20.1 nM,–,–,–,–,≥ 10000 nM,1000 nM
"CCCC1(NC(=O)NC(C)(C)c2ccc(-c3ccc(S(=O)(=O)CC4(COC)CC4)cc3)cc2)CN2CCC1CC2 (stereo not drawn) [Example 251, 1-(2-(4′-(((1-(Methoxymethyl)cyclopropyl)methyl)sulfonyl)-[1,1′-biphenyl]-4-yl)propan-2-yl)-3-(3-propylquinuclidin-3-yl)urea]",47.5 nM,5.01 nM,21 nM,–,–,–,–,≥ 10000 nM,1000 nM
"CNC(=O)c1ccc(-c2ccc(C(C)(C)NC(=O)NC3(C)CN4CCC3CC4)cc2)cc1 (stereo not drawn) [Example 253, N-Methyl-4′-(2-(3-(3-methylquinuclidin-3-yl)ureido)propan-2-yl)-[1,1′-biphenyl]-4-carboxamide]",2000 nM,201 nM,751 nM,–,–,–,–,2000 nM,2000 nM
"CN(C)C(=O)c1ccc(-c2ccc(C(C)(C)NC(=O)NC3(C)CN4CCC3CC4)cc2)cc1 (stereo not drawn) [Example 258, N,N-Dimethyl-4′-(2-(3-(3-methylquinuclidin-3-yl)ureido)propan-2-yl)biphenyl-4-carboxamide]",2340 nM,49 nM,281 nM,–,–,–,–,≥ 10000 nM,≥ 10000 nM
"CCC1(NC(=O)NC(C)(C)c2ccc(-c3ccc(C(=O)N4CCCCC4)cc3)cc2)CN2CCC1CC2 (stereo not drawn) [Example 264, 1-(3-Ethylquinuclidin-3-yl)-3-(2-(4′-(piperidine-1-carbonyl)biphenyl-4-yl)propan-2-yl)urea]",67.4 nM,2.13 nM,13.7 nM,–,–,–,–,≥ 10000 nM,1000 nM
